The target of test [1] is T1, human GPCR sphingosine 1-phosphate receptor 2 (Homo sapiens, UniProt O95136).
T1 construct: host or cells: CHO
Kind of test: S1PR2 antagonist Ca2+ flux assay. The class given is cell-based. As to conditions: antagonist mode, CHO-S1PR2 cells, S1P at EC80, Ca2+ fluorescence; read-out: S1P2 EC50 (nM), S1P2 antagonist EC50. The procedure, abridged:
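Antagonist mode: 15 min after compound addition, S1P (EC80) stimulates Fluo8-loaded, 1 h-starved CHO-S1PR2 cells, Ca2+ read over 3 min; a prior 3-min read checks compound agonism. EC50 from peak/baseline fluorescence ratio, normalised versus vehicle and S1P EC50 (antagonist) or EC100 (agonist).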
(A change in cytosolic calcium serves as a functional read-out for many receptors and channels.)

Test [2] addresses T2, human GPCR sphingosine 1-phosphate receptor 5 (Homo sapiens, UniProt Q9H228).
T2 construct: host or cells: CHO
Kind of test: S1PR5 selectivity Ca2+ flux assay (antagonist readout). Type of test: cell-based. As to conditions: CHO cells overexpressing human S1PR5 and Gq, agonist at EC80 (20 nM), read-out: S1P5 EC50 (nM), S1P5 antagonist EC50. The text has this:
To evaluate the selectivity of the compounds for S1PR2 over S1PR1 and S1PR5, asimilar assay set upas described above for theS1PR2 calcium flux assays waspeformed: CHO cells stably overexpressing human GPCR sphingosine 1-phosphate receptor 1 and Gq protein (Euroscreen, FAST-0197A) or overexpressing human GPCR sphingosine 1-phosphate receptorS5 and Gq protein were used (Perkin Elmer, ES-593-A). In case of the S1PR5 assay triggering was done with an SPR5 specific agonist instead of with S1P (Hobson et al., 2015).
(§1) 50 μL of Chinese hamster ovary (CHO) cells stably overexpressing human S1PR1 or S1PR5 are seeded in 384 well sterile microplates (7,500 cells/well or 10,000 cells/well respectively) and are incubated overnight at 37° C. under 5% CO2. Cells are subsequently washed twice with 25 μL/well of starvation medium (F-12 Ham's medium containing 0.1% fatty acid free bovine serum albumin (FAF BSA)). After one h starvation at 37° C., 5% CO2, cells are loaded with 25 μL of Fluo 8 dye diluted in Hank's balanced salt solution (HBSS) with 20 mM Hepes complemented with 5 mM of probenecid following the recommendations of the manufacturer (one h at 37° C., 5% CO2). Dilution series of compounds are prepared in HBSS buffer with 20 mM Hepes and 0.1% BSA (FAF). 10 μL of diluted compound is added to the cells using the FDSS/pCELL and intracellular calcium changes are measured immediately by recording fluorescence during 3 min (agonist readout). The ratio of maximal signal over background before compound injection is used to determine compound response.
After an incubation of 15 min at 37° C., following the agonist readout, the plates are transferred to the FDSS/pCELL reader. Cells are stimulated with 10 μL of EC80 concentration of S1P (6 nM for S1P1 and 20 nM for S1P5) and intracellular calcium changes are measured immediately by recording fluorescence during three min (antagonist readout). The ratio of maximal signal over background before S1P injection was used to determine the inhibitory effect ofthe compound.
(§2) Raw data obtained in each experiment (ratio of maximal signal over background for calcium mobilization assays) were normalized in percentage of activation (agonist mode) or inhibition (antagonist mode) using positive and negative experiment controls. Each individual plate quality was assessed by evaluation of Z′ factor calculated with raw data using the following equation
(§3) Y=bottom+(top−bottom)/(1+(10^(Log IC50−X)*Hillslope)) where X is the logarithm of the concentration of the compound

The target of a further test is T3, S1PR2 (Homo sapiens, UniProt O95136).
T3 construct: expressed in transfected cells
T3 sequence (O95136 whole entry): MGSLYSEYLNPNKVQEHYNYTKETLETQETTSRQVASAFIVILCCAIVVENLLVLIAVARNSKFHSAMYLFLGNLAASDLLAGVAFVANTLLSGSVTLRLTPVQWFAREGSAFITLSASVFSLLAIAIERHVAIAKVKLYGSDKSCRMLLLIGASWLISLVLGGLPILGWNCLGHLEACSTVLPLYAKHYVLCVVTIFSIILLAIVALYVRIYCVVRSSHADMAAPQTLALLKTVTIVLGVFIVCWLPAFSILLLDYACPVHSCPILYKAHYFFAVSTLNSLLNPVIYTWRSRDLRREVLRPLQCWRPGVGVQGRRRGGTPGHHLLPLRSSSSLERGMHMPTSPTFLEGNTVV
Kind of test: S1PR2 binding assay (competition with radioactively labeled S1P, SpA). To be noted: membranes from stable cell line over expressing S1PR2, SpA beads; read-out: S1P2 EC50 (nM), S1PR2 binding EC50. The procedure, abridged:
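Scintillation proximity read-out after 2 h room-temperature incubation of compound, [3H]S1P and S1PR2-overexpressing cell membranes on WGA-coated beads. Buffer: 20 mM Tris pH 7.5, 100 mM NaCl, 10 mM MgCl2, 1 mM Na3VO4, 0.4% fatty-acid-free BSA; plates counted immediately after centrifugation.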

Test [3] has as its system HFL-1 cells. Kind of test: IL-8 production assay (S1P induced IL-8). The class given is cell-based. To be noted: Homo sapiens, HFL1; S1P (1 μM) induced IL-8 in HFL-1 cells, starvation medium without HSA; read-out: IL8 EC50. Put shortly:
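HFL-1 fibroblasts in low-serum medium were pretreated 1 h with a 10-point 1/3 series of compound starting at 30 μM (0.3% DMSO).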

Test [4] deals with HFL-1 cells. The test can be described thus: IL8 assay in the presence of Human Serum Albumin. To be noted: HFL1, read-out: HSA IL8 EC50.
Test [5] addresses T4, human GPCR sphingosine 1-phosphate receptor 1 (Homo sapiens, UniProt P21453).
T4 construct: host or cells: CHO
Kind of test: S1PR1 selectivity Ca2+ flux assay (antagonist readout). To be noted: antagonist readout, CHO cells overexpressing human S1PR1 and Gq, S1P at EC80 (6 nM); read-out: S1P1 EC50 (nM), S1P1 antagonist EC50. Type of test: cell-based. The protocol:
as §1
After an incubation of 15 min at 37° C., following the agonist readout, the plates are transferred to the FDSS/pCELL reader. […] The ratio of maximal signal over background before S1P injection was used to determine the inhibitory effect ofthe compound.
as §2, §3

For orientation: EC50 means the concentration at which the effect is half-maximal.

T2 sequence (Q9H228 whole entry): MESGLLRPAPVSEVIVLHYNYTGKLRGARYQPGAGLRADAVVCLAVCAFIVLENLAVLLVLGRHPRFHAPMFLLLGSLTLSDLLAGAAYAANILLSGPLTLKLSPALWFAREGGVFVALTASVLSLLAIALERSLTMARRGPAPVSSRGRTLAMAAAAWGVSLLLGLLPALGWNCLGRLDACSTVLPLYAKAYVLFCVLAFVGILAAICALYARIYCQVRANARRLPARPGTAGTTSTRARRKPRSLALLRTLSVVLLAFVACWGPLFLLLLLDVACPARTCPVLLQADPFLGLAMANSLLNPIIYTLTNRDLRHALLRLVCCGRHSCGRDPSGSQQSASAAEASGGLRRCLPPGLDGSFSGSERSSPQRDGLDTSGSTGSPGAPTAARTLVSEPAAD
T4 sequence (P21453 whole entry): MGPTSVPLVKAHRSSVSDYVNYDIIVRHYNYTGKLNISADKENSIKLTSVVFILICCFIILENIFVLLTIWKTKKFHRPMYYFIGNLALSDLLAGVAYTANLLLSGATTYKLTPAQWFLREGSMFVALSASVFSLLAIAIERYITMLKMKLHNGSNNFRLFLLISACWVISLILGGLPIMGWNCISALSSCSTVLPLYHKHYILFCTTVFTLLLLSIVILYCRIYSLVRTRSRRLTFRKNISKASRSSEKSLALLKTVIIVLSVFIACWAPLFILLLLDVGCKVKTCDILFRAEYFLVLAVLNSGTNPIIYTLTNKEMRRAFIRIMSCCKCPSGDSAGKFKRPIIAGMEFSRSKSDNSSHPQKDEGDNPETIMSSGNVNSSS
T1 sequence (O95136 whole entry): as the sequence (O95136 whole entry) above

`O=C(O)c1nn(Cc2nc3cc(OCC4CC4)c(Cl)cc3[nH]2)c2ccccc2c1=O` [compound 5, 1-[[6-chloro-5-(cyclopropyl-methoxy)-1H-benzimidazol-2-yl]methyl]-4-oxo-cinnoline-3-carboxylic acid]: the EC50 in test [1] worked out at 3.48 nM; in test [2], 1620 nM; on S1PR2, 22 nM; in the test on HFL-1 cells [3], 1.52 nM; in the test on HFL-1 cells [4], 17.5 nM.
In the same order, the values of `O=C(O)Cn1nc(Cc2nc3nc(OCC4CC4)c(Cl)cc3[nH]2)c2ccccc2c1=O` [Compound 257, 2-[4-[[6-chloro-5-(cyclopropylmethoxy)-1H-imidazo[4,5-b]pyridin-2-yl]methyl]-1-oxo-phthalazin-2-yl]acetic acid] are 24.3 nM, 19800 nM, 231 nM, 53.9 nM and 216 nM.
In the same order, the values of `CN(C)CC(C(=O)O)c1nn(Cc2nc3cc(C#N)c(OCC4CC4)cc3[nH]2)c2ccccc2c1=O` (stereo not shown) [compound 21, (2-[1-[[5-cyano-6-(cyclopropyl-methoxy)-1H-benzimidazol-2-yl]methyl]-4-oxocinnolin-3-yl]-3-(dimethyl-amino)propanoic acid)] are 5.4 nM, 19800 nM, 30.4 nM, 2.52 nM and 52.1 nM.
For the compound `CC(C(=O)O)c1nn(Cc2cn3cc(OCC4CC4)c(C(F)(F)F)cc3n2)c2ccccc2c1=O` (stereo not shown) [Compound 100, 2-[1-[[6-(cyclopropylmethoxy)-7-(trifluoromethyl)imidazo[1,2-a]pyridin-2-yl]methyl]-4-oxo-cinnolin-3-yl]propanoic acid], the EC50 in test [1] was determined as 3.45 nM; in test [2], 19800 nM; at S1PR2 it was 51.1 nM; with HFL-1 cells [3], 4.97 nM; in the test with HFL-1 cells [4], 63.5 nM.
On the same counts, the results for `CC(C(=O)O)n1nc(Cc2cn3cc(OCC4CC4)c(Cl)cc3n2)c2cc(F)ccc2c1=O` (stereo not shown) [Compound 86, 2-[4-[[7-chloro-6-(cyclopropylmethoxy)imidazo[1,2-a]pyridin-2-yl]methyl]-6-fluoro-1-oxo-phthalazin-2-yl]propanoic acid] are 6.33 nM, 19800 nM, 28.7 nM, 0.911 nM and 97.1 nM.
Consider `CC(C(=O)O)n1nc(Cn2cc3cc(OCC4CC4)c(Cl)cc3n2)c2ccccc2c1=O` (stereo not shown) [compound 3, 2-[4-[[6-chloro-5-(cyclopropyl-methoxy)indazol-2-yl]methyl]-1-oxo-phthalazin-2-yl]propanoic acid], for which the EC50 in test [2] amounted to 19800 nM; with HFL-1 cells [3], 3.99 nM; with HFL-1 cells [4] it was 217 nM.
As to `O=C(Cn1nc(Cc2nc3cc(Cl)c(OCC4CC4)cc3[nH]2)c2ccccc2c1=O)NC1CCCC1` [Compound 150, 2-[4-[[5-chloro-6-(cyclopropylmethoxy)-1H-benzimidazol-2-yl]methyl]-1-oxo-phthalazin-2-yl]-N-cyclopentyl-acetamide], the half-maximal effective concentration (EC50) in test [1] is 13.7 nM; in test [2] it was 19800 nM; at S1PR2, 15.6 nM; with HFL-1 cells [3] it was 6.14 nM; with HFL-1 cells [4], 41.4 nM.
For the compound `O=C(O)Cn1nc(Cn2cc3cc(OCC(F)F)c(Cl)cc3n2)c2ccccc2c1=O` [Compound 253, 2-[4-[[6-chloro-5-(2,2-difluoroethoxy)indazol-2-yl)methyl]-1-oxo-phthalazin-2-yl]acetic acid], the EC50 in test [1] was 184 nM; in test [5], no less than 19900 nM; on S1PR2, 182 nM; in the test with HFL-1 cells [3] it was 290 nM; with HFL-1 cells [4], 4130 nM.
On to `O=C(Cn1nc(Cc2nc3cc(Cl)c(OC(F)(F)F)cc3[nH]2)c2c(c1=O)CCCC2)N1CCOCC1` [Compound 145, 4-[[5-chloro-6-(trifluoromethoxy)-1H-benzimidazol-2-yl]methyl]-2-(2-morpholino-2-oxo-ethyl)-5,6,7,8-tetrahydrophthalazin-1-one], for which the 50% effective concentration (EC50) was 42.6 nM in test [1]; no less than 19900 nM in test [5]; 80.2 nM on S1PR2; 89.3 nM in the test with HFL-1 cells [3]; 330 nM with HFL-1 cells [4].
With `O=C(O)Cn1nc(Cn2cc3cc(OCC(F)(F)F)c(Cl)cc3n2)c2ccccc2c1=O` [Compound 252, 2-[4-[[6-chloro-5-(2,2,2-trifluoroethoxy)indazol-2-yl]methyl]-1-oxo-phthalazin-2-yl]acetic acid], the EC50 in test [1] was 62.6 nM; in test [5], no less than 19900 nM; at S1PR2, 239 nM; in the test with HFL-1 cells [3], 145 nM; in the test on HFL-1 cells [4], 16500 nM.
For `O=C(O)Cc1nn(Cc2cn3cc(OCC4CC4)c(C(F)(F)F)cc3n2)c2ccccc2c1=O` [Compound 99, 2-[1-[[6-(cyclopropylmethoxy)-7-(trifluoromethyl)imidazo[1,2-a]pyridin-2-yl]methyl]-4-oxo-cinnolin-3-yl]acetic acid], the EC50 in test [1] amounted to 3.56 nM; in test [2], 6610 nM; on S1PR2, 44.9 nM; with HFL-1 cells [4] it was 322 nM.
With `CCOc1cc2cn(Cc3nn(CC(=O)O)c(=O)c4ccccc34)nc2cc1Cl` [Compound 251, 2-[4-[(6-chloro-5-ethoxy-indazol-2-yl)methyl]-1-oxo-phthalazin-2-yl]acetic acid], the half-maximal effective concentration (EC50) was 179 nM in test [1]; no less than 19900 nM in test [5]; 113 nM at S1PR2; 111 nM in the test on HFL-1 cells [3]; 3460 nM in the test with HFL-1 cells [4].
On to `O=C(Cn1nc(Cn2cc3cc(OCC4CC4)c(Cl)cc3n2)c2ccccc2c1=O)N1CCOCC1` [Compound 148, 4-[[6-chloro-5-(cyclopropylmethoxy)indazol-2-yl]methyl]-2-(2-morpholino-2-oxo-ethyl)phthalazin-1-one], for which the EC50 in test [1] is 41.5 nM; in test [5], no less than 19900 nM; on S1PR2, 32.1 nM; in the test with HFL-1 cells [3] it was 68.9 nM; in the test with HFL-1 cells [4] it was 785 nM.
As for `O=C(O)Cn1nc(Cc2nc3cc(Cl)c(OC(F)(F)F)cc3[nH]2)c2c(c1=O)CCCC2` [Compound 113, 2-[4-[[5-chloro-6-(trifluoromethoxy)-1H-benzimidazol-2-yl]methyl]-1-oxo-5,6,7,8-tetrahydrophthalazin-2-yl]acetic acid], the EC50 in test [1] was 23.7 nM; in test [5], no less than 19900 nM; at S1PR2, 154 nM; with HFL-1 cells [3], 418 nM; with HFL-1 cells [4], 917 nM.

These data come from patent US20210315893A1 (Galapagos NV, priority 2017, published 2021).
